Source: US20150025012A1, “METHODS AND COMPOSITIONS FOR IDENTIFICATION, ASSESSMENT AND TREATMENT OF CANCERS ASSOCIATED WITH HEDGEHOG SIGNALING” (Infinity Pharmaceuticals, Inc., priority 2010, published 2015)

Assays:
[1] = system: patient derived tumor xenograft models; experiment: Tumor growth in patient derived tumor xenograft models; format: in vivo, Mice
From the text: Mice received daily treatment of IPI-926, M-F, for 6-10 weeks (n=10-15 per group).

tumor stroma = experiment: Uptake of imaging marker Gd-DTPA (DCE-MRI) and fluorescent drug and protein in tumors; format: in vivo; settings: IPI-926 treated tumors
hGli-1 mRNA expression = experiment: Gli-1 mRNA expression after SHh stimulation in tumor cell lines (qRT-PCR); format: cell-based, human; settings: SW872 liposarcoma cell lines; 500 nM IPI-926
Protocol: Several tumor cell lines were tested for Hh pathway responsiveness and for the presence or absence of cilia or vimentin immunofluorescence (IF). Hh pathway responsiveness was evaluated by detecting increases in hGli-1 mRNA expression in response to Sonic Hedgehog stimulation) in a control sample (C), sample treated with Sonic Hedgehog (SHh), and sample treated with SHh and 500 nM of the hedgehog inhibitor IPI-926 (926). Procedures for RNA extraction and RT-PCR detection were performed by standard methods. Briefly, total RNA was extracted from all tumors using a standard RNEASY® Mini Kit (Qiagen). Next, the RNA was converted to cDNA and 50 ng cDNA was used in each reaction/sample for qRT-PCR analysis of the expression of human Gli1. Samples were tested in duplicate. Cilia and Vimentin IF was performed using standard immunofluorescent methods. Cilia were detected on cells using immunofluorescence (IF) with antibodies specific for acetylated-tubulin obtained from Sigma Aldrich. Cells were co-stained with antibodies to the centriole-specific protein pericentrin.
Hh pathway modulation measured after growing cells in low serum and treating with SHh ligand in the presence or absence of IPI-926. Cell lines were cultured under the following conditions. […]

murine Gli1 = experiment: Gli1 mRNA in sorted stromal cell fractions of tumors; format: in vivo; settings: Lin+/Lin- and CD31+/CD31- fractions; IPI-926 40 mg/kg 24 hours prior to sacrifice
From the text: Since tumor-associated stroma is a complex mixture of different cell types, further experiments have been carried out to determine the identity of the IPI-926-responsive cells. Tumors were obtained from animals treated or untreated with IPI-926 and the cells from within the tumors were subsequently fractionated in the following manner. First, the human cancer cells were removed from the mixture using magnetic beads that were coated with an antibody against the cell surface marker, Ep-CAM. Those cells that remained were the murine stromal cells associated with that tumor. Next, these stromal cells were subsequently separated based on their expression of cell surface markers known to be associated with specific cell lineages. In one sample set, cells were separated based on their expression of a panel of markers specific for cells of the hematopoietic lineage. These cells can be referred to as either Lin− or Lin+. […]
Cells used for sorting experiments were obtained by the following procedure. […] After this incubation, the cells in the flow through and the column were then analyzed for their expression of specific mRNAs by RT-PCR.
RNA for analysis was isolated from cell pellets or tumor tissue using the Ambion RNA 4-PCR isolation kit according to the manufacturer's guidance. […] Relative quantification of the expression data was obtained using the ΔΔCT method as described by Applied Biosystems.

[2] = daily treatment M-F for 6-10 weeks, multiple models

CC1=C2C[C@H]3[C@@H](CC[C@@H]4C[C@H](NS(C)(=O)=O)CC[C@@]43C)[C@@H]2CC[C@@]2(C1)O[C@@H]1C[C@H](C)CN[C@H]1[C@H]2C [IPI-926]
changes in morphology ([1]; FIGS. 22A-22D micrographs): loss of tumor cells and calcification of the chondroid matrix
mean tumor growth inhibition [1, 2]: 43%
range of tumor growth inhibition [1, 2]: 33-52%
uptake of imaging marker Gd-DTPA and fluorescent drug and protein (doxorubicin, lectin) (tumor stroma): increased uptake
SHh-upregulated Gli-1 mRNA expression (hGli-1 mRNA expression): blocked
murine Gli1 inhibition in stromal cell fractions (murine Gli1): greatest degree of murine Gli1 inhibition was present in both the Lin-population and CD31-population
